Test results published in the NIST ThermoML archive (doi:10.1021/acs.jced.7b00773).

Conditions: Liquid; for viscosity: Concentric cylinders viscometry

C=CCn1cc[n+](C)c1.O=S(=O)([N-]S(=O)(=O)C(F)(F)F)C(F)(F)F
100 kPa
Conditions | viscosity [mPa·s]
293.15 K | 40.69
303.15 K | 28.08
313.15 K | 20.31
323.15 K | 15.29
333.15 K | 11.91
343.15 K | 9.52
353.15 K | 7.783
363.15 K | 6.489
373.15 K | 5.498

Conditions | mass density [kg/m3]
293.15 K, 100 kPa, Vibrating tube method | 1506.1
303.15 K, 100 kPa, Vibrating tube method | 1496
312.5 K, 10000 kPa, Bellows volumetry | 1493.8
312.5 K, 20000 kPa, Bellows volumetry | 1501.1
312.5 K, 30000 kPa, Bellows volumetry | 1508
312.5 K, 40000 kPa, Bellows volumetry | 1514.7
312.5 K, 50000 kPa, Bellows volumetry | 1521
312.5 K, 60000 kPa, Bellows volumetry | 1527.1
312.5 K, 70000 kPa, Bellows volumetry | 1533.1
312.5 K, 80000 kPa, Bellows volumetry | 1538.8
312.5 K, 90000 kPa, Bellows volumetry | 1544.2
312.5 K, 100000 kPa, Bellows volumetry | 1549.5
312.5 K, 110000 kPa, Bellows volumetry | 1554.7
312.5 K, 120000 kPa, Bellows volumetry | 1559.7
312.5 K, 130000 kPa, Bellows volumetry | 1564.7
312.5 K, 140000 kPa, Bellows volumetry | 1569.4
312.5 K, 150000 kPa, Bellows volumetry | 1574
312.5 K, 160000 kPa, Bellows volumetry | 1578.6
312.5 K, 170000 kPa, Bellows volumetry | 1583.2
312.5 K, 180000 kPa, Bellows volumetry | 1587.5
312.5 K, 190000 kPa, Bellows volumetry | 1591.8
312.5 K, 200000 kPa, Bellows volumetry | 1596
313.15 K, 100 kPa, Vibrating tube method | 1486
323.15 K, 100 kPa, Vibrating tube method | 1476
332.3 K, 10000 kPa, Bellows volumetry | 1474.5
332.3 K, 20000 kPa, Bellows volumetry | 1482.1
332.3 K, 30000 kPa, Bellows volumetry | 1489.6
332.3 K, 40000 kPa, Bellows volumetry | 1496.7
332.3 K, 50000 kPa, Bellows volumetry | 1503.4
332.3 K, 60000 kPa, Bellows volumetry | 1509.7
332.3 K, 70000 kPa, Bellows volumetry | 1515.8
332.3 K, 80000 kPa, Bellows volumetry | 1521.7
332.3 K, 90000 kPa, Bellows volumetry | 1527.3
332.3 K, 100000 kPa, Bellows volumetry | 1533
332.3 K, 110000 kPa, Bellows volumetry | 1538.5
332.3 K, 120000 kPa, Bellows volumetry | 1543.8
332.3 K, 130000 kPa, Bellows volumetry | 1548.9
332.3 K, 140000 kPa, Bellows volumetry | 1553.7
332.3 K, 150000 kPa, Bellows volumetry | 1558.5
332.3 K, 160000 kPa, Bellows volumetry | 1563.3
332.3 K, 170000 kPa, Bellows volumetry | 1568
332.3 K, 180000 kPa, Bellows volumetry | 1572.5
332.3 K, 190000 kPa, Bellows volumetry | 1576.9
332.3 K, 200000 kPa, Bellows volumetry | 1581.4
333.15 K, 100 kPa, Vibrating tube method | 1466.1
343.15 K, 100 kPa, Vibrating tube method | 1456.3
352.4 K, 10000 kPa, Bellows volumetry | 1455.3
352.4 K, 20000 kPa, Bellows volumetry | 1463.6
352.4 K, 30000 kPa, Bellows volumetry | 1471.5
352.4 K, 40000 kPa, Bellows volumetry | 1479
352.4 K, 50000 kPa, Bellows volumetry | 1486.1
352.4 K, 60000 kPa, Bellows volumetry | 1492.9
352.4 K, 70000 kPa, Bellows volumetry | 1499.3
352.4 K, 80000 kPa, Bellows volumetry | 1505.6
352.4 K, 90000 kPa, Bellows volumetry | 1511.4
352.4 K, 100000 kPa, Bellows volumetry | 1517.2
352.4 K, 110000 kPa, Bellows volumetry | 1522.8
352.4 K, 120000 kPa, Bellows volumetry | 1528.3
352.4 K, 130000 kPa, Bellows volumetry | 1533.5
352.4 K, 140000 kPa, Bellows volumetry | 1538.7
352.4 K, 150000 kPa, Bellows volumetry | 1543.7
352.4 K, 160000 kPa, Bellows volumetry | 1548.5
352.4 K, 170000 kPa, Bellows volumetry | 1553.3
352.4 K, 180000 kPa, Bellows volumetry | 1558
352.4 K, 190000 kPa, Bellows volumetry | 1562.6
352.4 K, 200000 kPa, Bellows volumetry | 1567.1
353.15 K, 100 kPa, Vibrating tube method | 1446.5
363.15 K, 100 kPa, Vibrating tube method | 1436.8
372.5 K, 10000 kPa, Bellows volumetry | 1436.7
372.5 K, 20000 kPa, Bellows volumetry | 1445.3
372.5 K, 30000 kPa, Bellows volumetry | 1453.7
372.5 K, 40000 kPa, Bellows volumetry | 1461.6
372.5 K, 50000 kPa, Bellows volumetry | 1469.1
372.5 K, 60000 kPa, Bellows volumetry | 1476.1
372.5 K, 70000 kPa, Bellows volumetry | 1482.9
372.5 K, 80000 kPa, Bellows volumetry | 1489.5
372.5 K, 90000 kPa, Bellows volumetry | 1495.6
372.5 K, 100000 kPa, Bellows volumetry | 1501.6
372.5 K, 110000 kPa, Bellows volumetry | 1507.5
372.5 K, 120000 kPa, Bellows volumetry | 1513.3
372.5 K, 130000 kPa, Bellows volumetry | 1518.7
372.5 K, 140000 kPa, Bellows volumetry | 1524
372.5 K, 150000 kPa, Bellows volumetry | 1529.2
372.5 K, 160000 kPa, Bellows volumetry | 1534.2
372.5 K, 170000 kPa, Bellows volumetry | 1539.1
372.5 K, 180000 kPa, Bellows volumetry | 1544
372.5 K, 190000 kPa, Bellows volumetry | 1548.6
372.5 K, 200000 kPa, Bellows volumetry | 1553.4
373.15 K, 100 kPa, Vibrating tube method | 1427.3
392.8 K, 10000 kPa, Bellows volumetry | 1417.8
392.8 K, 20000 kPa, Bellows volumetry | 1427.3
392.8 K, 30000 kPa, Bellows volumetry | 1436.1
392.8 K, 40000 kPa, Bellows volumetry | 1444.4
392.8 K, 50000 kPa, Bellows volumetry | 1452.4
392.8 K, 60000 kPa, Bellows volumetry | 1459.8
392.8 K, 70000 kPa, Bellows volumetry | 1466.9
392.8 K, 80000 kPa, Bellows volumetry | 1473.7
392.8 K, 90000 kPa, Bellows volumetry | 1480.1
392.8 K, 100000 kPa, Bellows volumetry | 1486.5
392.8 K, 110000 kPa, Bellows volumetry | 1492.5
392.8 K, 120000 kPa, Bellows volumetry | 1498.5
392.8 K, 130000 kPa, Bellows volumetry | 1504.2
392.8 K, 140000 kPa, Bellows volumetry | 1509.6
392.8 K, 150000 kPa, Bellows volumetry | 1514.9
392.8 K, 160000 kPa, Bellows volumetry | 1520.2
392.8 K, 170000 kPa, Bellows volumetry | 1525.3
392.8 K, 180000 kPa, Bellows volumetry | 1530.2
392.8 K, 190000 kPa, Bellows volumetry | 1535.1
392.8 K, 200000 kPa, Bellows volumetry | 1539.9
413.1 K, 10000 kPa, Bellows volumetry | 1399.4
413.1 K, 20000 kPa, Bellows volumetry | 1409.4
413.1 K, 30000 kPa, Bellows volumetry | 1418.9
413.1 K, 40000 kPa, Bellows volumetry | 1427.7
413.1 K, 50000 kPa, Bellows volumetry | 1436
413.1 K, 60000 kPa, Bellows volumetry | 1443.8
413.1 K, 70000 kPa, Bellows volumetry | 1451.3
413.1 K, 80000 kPa, Bellows volumetry | 1458.4
413.1 K, 90000 kPa, Bellows volumetry | 1465.2
413.1 K, 100000 kPa, Bellows volumetry | 1471.7
413.1 K, 110000 kPa, Bellows volumetry | 1478
413.1 K, 120000 kPa, Bellows volumetry | 1484.2
413.1 K, 130000 kPa, Bellows volumetry | 1490
413.1 K, 140000 kPa, Bellows volumetry | 1495.8
413.1 K, 150000 kPa, Bellows volumetry | 1501.3
413.1 K, 160000 kPa, Bellows volumetry | 1506.6
413.1 K, 170000 kPa, Bellows volumetry | 1511.8
413.1 K, 180000 kPa, Bellows volumetry | 1516.9
413.1 K, 190000 kPa, Bellows volumetry | 1521.8
413.1 K, 200000 kPa, Bellows volumetry | 1526.8
432.7 K, 10000 kPa, Bellows volumetry | 1381.4
432.7 K, 20000 kPa, Bellows volumetry | 1392
432.7 K, 30000 kPa, Bellows volumetry | 1401.8
432.7 K, 40000 kPa, Bellows volumetry | 1411.1
432.7 K, 50000 kPa, Bellows volumetry | 1419.9
432.7 K, 60000 kPa, Bellows volumetry | 1428
432.7 K, 70000 kPa, Bellows volumetry | 1435.9
432.7 K, 80000 kPa, Bellows volumetry | 1443.4
432.7 K, 90000 kPa, Bellows volumetry | 1450.5
432.7 K, 100000 kPa, Bellows volumetry | 1457.2
432.7 K, 110000 kPa, Bellows volumetry | 1463.7
432.7 K, 120000 kPa, Bellows volumetry | 1470.1
432.7 K, 130000 kPa, Bellows volumetry | 1476.1
432.7 K, 140000 kPa, Bellows volumetry | 1482
432.7 K, 150000 kPa, Bellows volumetry | 1487.7
432.7 K, 160000 kPa, Bellows volumetry | 1493.2
432.7 K, 170000 kPa, Bellows volumetry | 1498.6
432.7 K, 180000 kPa, Bellows volumetry | 1503.9
432.7 K, 190000 kPa, Bellows volumetry | 1508.9
432.7 K, 200000 kPa, Bellows volumetry | 1514
